Test results as given in patent US10508120B2, “TYK2 inhibitors and uses thereof” (Nimbus Lakshmi, Inc., priority 2017, dated 2019).
Where two headings read alike, the source gives them in different places.

How the values were obtained:
[1] = biological target: human TYK2 (JH2domain-pseudokinase) (Homo sapiens (Human), UniProt P29597); experiment: TYK2 JH2 Domain Binding Assay (KINOMEscan)
Method in brief: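 Pseudokinase domain binding was measured by qPCR of tagged, bead-retained kinase after 1 h room-temperature competition, with 0.9% DMSO and compound up to 30,000 nM in 3-fold steps. Hill-equation Kd, duplicate.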

Tyk2 kinase domain (DH1) = Tyk2 kinase domain (DH1) (Homo sapiens (Human), UniProt P29597); experiment: Tyk2 Radioactive Kinase Assay; assay type: biochemical; settings: for inhibition at 10 µM: read-out: Tyk2 JH1% Inhibition @ 10 μM
Method in brief: (§1)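 Read-out is percent inhibition from a radioactive kinase reaction, measured with compound at 10 μM.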

JAK2 kinase domain (JH1) = JAK2 kinase domain (JH1) (Homo sapiens (Human), UniProt O60674); experiment: JAK2 Radioactive Kinase Assay; assay type: biochemical; settings: for inhibition at 10 µM: read-out: JAK2 JH1% Inhibition @ 10 μM
Method in brief: as §1

JAK2 kinase domain (JH1), sequence (O60674 849-1124): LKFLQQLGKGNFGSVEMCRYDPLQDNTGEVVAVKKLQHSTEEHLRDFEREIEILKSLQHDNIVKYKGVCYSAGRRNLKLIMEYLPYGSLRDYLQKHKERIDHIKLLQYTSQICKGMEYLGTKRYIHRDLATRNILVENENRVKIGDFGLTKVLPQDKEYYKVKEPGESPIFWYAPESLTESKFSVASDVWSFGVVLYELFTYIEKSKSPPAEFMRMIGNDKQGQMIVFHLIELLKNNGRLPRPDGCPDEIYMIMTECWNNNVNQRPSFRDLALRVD
human TYK2 (JH2domain-pseudokinase), sequence (P29597 556-888): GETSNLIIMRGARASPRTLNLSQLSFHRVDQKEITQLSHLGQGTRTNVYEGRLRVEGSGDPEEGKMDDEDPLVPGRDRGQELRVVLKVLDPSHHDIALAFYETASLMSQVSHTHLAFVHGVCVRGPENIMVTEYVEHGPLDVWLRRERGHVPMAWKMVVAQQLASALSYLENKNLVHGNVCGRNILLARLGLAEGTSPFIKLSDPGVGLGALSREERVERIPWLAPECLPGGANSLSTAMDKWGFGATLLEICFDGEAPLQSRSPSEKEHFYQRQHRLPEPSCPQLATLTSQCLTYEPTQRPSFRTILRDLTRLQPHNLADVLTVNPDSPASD
Tyk2 kinase domain (DH1), sequence (P29597 897-1176): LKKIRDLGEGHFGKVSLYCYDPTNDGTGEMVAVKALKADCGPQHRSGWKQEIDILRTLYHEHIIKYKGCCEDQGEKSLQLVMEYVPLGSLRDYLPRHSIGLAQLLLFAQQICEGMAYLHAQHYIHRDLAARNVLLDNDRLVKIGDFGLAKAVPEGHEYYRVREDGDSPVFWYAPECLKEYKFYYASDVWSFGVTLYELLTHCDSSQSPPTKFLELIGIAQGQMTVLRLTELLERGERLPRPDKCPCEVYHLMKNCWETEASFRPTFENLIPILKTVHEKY

Kd [1] [nM]	inhibition at 10 µM (Tyk2 kinase domain (DH1); compound at 10 μM, ATP 10 μM) [%]	inhibition at 10 µM (JAK2 kinase domain (JH1); compound at 10 μM, ATP 10 μM) [%]	inhibition at 10 µM (Tyk2 kinase domain (DH1); 10 μM compound, 10 μM ATP) [%]	inhibition at 10 µM (JAK2 kinase domain (JH1); 10 μM compound, 10 μM ATP) [%]	Structure (SMILES)	Tyk2 JH1% Inhibition @ 10 μM (Tyk2 kinase domain (DH1); compound at 10 μM, ATP 10 μM)	JAK2 JH1% Inhibition @ 10 μM (JAK2 kinase domain (JH1); compound at 10 μM, ATP 10 μM)
< 0.2	< 50	< 50			CNc1cc(-c2cn(CCN3CCCCC3)c3ncccc23)nc2c(C(=O)NC3CC3)cnn12 [I-584, N-cyclopropyl-7-(methylamino)-5-(1-(2-(piperidin-1-yl)ethyl)-1H-pyrrolo[2,3-b]pyridin-3-yl)pyrazolo[1,5-a]pyrimidine-3-carboxamide]		
0.2 to 1			< 50	< 50	CNc1cc(-c2cn(C3CC3)c3ncccc23)nc2c(C(=O)N[C@@H]3CC[C@@H]3O)cnn12 [I-1081, 5-(1-cyclopropyl-1H-pyrrolo[2,3-b]pyridin-3-yl)-N-((1R,2S)-2-hydroxycyclobutyl)-7-(methylamino)pyrazolo[1,5-a]pyrimidine-3-carboxamide]		
0.2 to 1			< 50	< 50	CNc1cc(Nc2cccn(C(C)C)c2=O)nc2c(C(=O)N[C@@H]3CC[C@@H]3O)cnn12 [I-978]		
< 0.2	< 50	< 50			CNc1cc(Nc2cc(Cl)cnc2OC2CCOC2)nc2c(C(N)=O)cnn12 (stereo not drawn) [I-71]		
1 to 10			< 50	< 50	CNc1cc(Nc2cccn([C@@H]3CCCC[C@@H]3O)c2=O)nc2c(C(=O)N[C@@H]3C[C@@H]3F)cnn12 [I-889]		
< 0.2	< 50	< 50			CNc1cc(Nc2cccnc2O[C@H]2C[C@@H](OC)C2)nc2c(C(=O)N[C@H]3C[C@H]3F)cnn12 [I-186]		
> 10	< 50	< 50			CNc1cc(Nc2cccn(-c3ccc(F)cc3)c2=O)nc2c(C(=O)NC3COC3)cnn12 [I-109]		
1 to 10	< 50	< 50			CNc1cc(Nc2cccc([C@@H]3CCCCO3)n2)nc2c(C(=O)N[C@H]3CC[C@H]3O)cnn12 [I-645]		
0.2 to 1			< 50	< 50	CNc1cc(Nc2cccn(C(C)C)c2=O)nc2c(C(=O)N[C@H]3CC[C@@H]3O)cnn12 [I-982]		
0.2 to 1	< 50	< 50			CNc1cc(-c2nn(CCN3CCCCC3)c3ncccc23)nc2c(C(=O)N[C@H]3C[C@H]3F)cnn12 [I-458]		
0.2 to 1	< 50	< 50			CNc1cc(Nc2cccn(C3CCN(C)CC3)c2=O)nc2c(C(=O)NCC(C)(C)CO)cnn12 [I-542]		
< 0.2	< 50	< 50			CNc1cc(-c2cn(C(C)C)c3ncccc23)nc2c(C(=O)N[C@H]3COC[C@H]3O)cnn12 (stereo in doubt) [I-764, N-(4-hydroxytetrahydrofuran-3-yl)-5-(1-isopropyl-1H-pyrrolo[2,3-b]pyridin-3-yl)-7-(methylamino)pyrazolo[1,5-a]pyrimidine-3-carboxamide]		
0.2 to 1	< 50	< 50			CCn1cc(Cl)cc(Nc2cc(N)n3ncc(C(N)=O)c3n2)c1=O [I-49]		
0.2 to 1	< 50	< 50			CNc1cc(Nc2cccn(C3=NC(C)(C)CS3)c2=O)nc2c(C(=O)NC3CCC3)cnn12 [I-503]		
< 0.2	< 50	< 50			CNc1cc(Nc2cccn(-c3ccn(C4CC4)n3)c2=O)nc2c(C(=O)NC3CC3)cnn12 [I-98]		
< 0.2	< 50	< 50			CNc1cc(Nc2ccc3c(n2)CCO3)nc2c(C(=O)N[C@H]3C[C@H]3F)cnn12 [I-632]		
0.2 to 1	< 50	< 50			COc1ncccc1Nc1cc(NCCN2CCOCC2)n2ncc(C(=O)N[C@@H]3C[C@@H]3F)c2n1 (stereo in doubt) [I-388, N-((1R,2S)-2-fluorocyclopropyl)-5-((2-methoxypyridin-3-yl)amino)-7-((2-morpholinoethyl)amino)pyrazolo[1,5-a]pyrimidine-3-carboxamide]		
< 0.2	< 50	< 50			CNc1cc(Nc2cccn(-c3cc(C)on3)c2=O)nc2c(C(N)=O)cnn12 [I-46]		
0.2 to 1			< 50	< 50	CNc1cc(Nc2cccn(C(C)C)c2=O)nc2c(C(=O)N[C@@H]3CCC[C@@H](O)C3)cnn12 [I-1079]		
< 0.2	< 50	< 50			CNc1cc(Nc2cccn([C@H]3CCCOC3)c2=O)nc2c(C(=O)N[C@@H]3CC[C@@H](O)C3)cnn12 [I-729]		

Kd [1] [nM]	inhibition at 10 µM (Tyk2 kinase domain (DH1); compound at 10 μM, ATP 10 μM) [%]	inhibition at 10 µM (JAK2 kinase domain (JH1); compound at 10 μM, ATP 10 μM) [%]	inhibition at 10 µM (Tyk2 kinase domain (DH1); 10 μM compound, 10 μM ATP) [%]	inhibition at 10 µM (JAK2 kinase domain (JH1); 10 μM compound, 10 μM ATP) [%]	Structure (SMILES)	Tyk2 JH1% Inhibition @ 10 μM (Tyk2 kinase domain (DH1); compound at 10 μM, ATP 10 μM)	JAK2 JH1% Inhibition @ 10 μM (JAK2 kinase domain (JH1); compound at 10 μM, ATP 10 μM)
1 to 10					CNc1cc(Nc2cccn([C@@H]3CCC[C@@H]3OC)c2=O)nc2c(C(=O)N[C@@H]3C[C@@H]3F)cnn12 [I-537]	A (percent inhibition at 10 μM lower than 50)	A (percent inhibition at 10 μM lower than 50)
0.2 to 1	< 50	< 50			CNc1cc(Nc2cccn(-c3ccc(OC)cn3)c2=O)nc2c(C(=O)NC3CC3)cnn12 [I-264]		
1 to 10	< 50	< 50			CNc1cc(Nc2cccnc2OC2CCCCC2)nc2c(C(=O)NC3CCC3)cnn12 [I-226]		
< 0.2			< 50	< 50	CNc1cc(Nc2cccn([C@H]3C[C@@H]3F)c2=O)nc2c(C(=O)NCC(C)(C)CO)cnn12 [I-1060]		
1 to 10	< 50	< 50			CC(C)(O)c1cccc(-n2cccc(Nc3cc(N)n4ncc(C(N)=O)c4n3)c2=O)n1 [I-41]		
< 0.2	< 50	< 50			CNc1cc(Nc2cccnc2OC)nc2c(C(=O)NC3CC(F)(F)C3)cnn12 [I-338, N-(3,3-difluorocyclobutyl)-5-((2-methoxypyridin-3-yl)amino)-7-(methylamino)pyrazolo[1,5-a]pyrimidine-3-carboxamide]		
< 0.2			< 50	< 50	CNc1cc(Nc2cccn([C@H]3CCC[C@H](O)C3)c2=O)nc2c(C(=O)N[C@@H]3C[C@@H]3F)cnn12 [I-1030]		
< 0.2	< 50	< 50			CNc1cc(Nc2cccn(C3CCN(C)CC3)c2=O)nc2c(C(=O)N[C@H]3C[C@H]3F)cnn12 [I-349]		
< 0.2	< 50	< 50			CNc1cc(Nc2cccn([C@H]3CCOC3)c2=O)nc2c(C(=O)NC3CCC3)cnn12 [I-205]		
< 0.2	< 50	< 50			CNc1cc(Nc2cccn(-c3cnco3)c2=O)nc2c(C(=O)NC3CC3)cnn12 [I-714]		
0.2 to 1	< 50	< 50			CNc1cc(Nc2ccc3c(n2)OCCO3)nc2c(C(=O)NC3CC3)cnn12 [I-531]		
0.2 to 1			< 50	< 50	CNc1cc(-c2cn(CCN3CCOCC3)c3ncccc23)nc2c(C(=O)N[C@H]3CC[C@@H]3O)cnn12 [I-836]		
0.2 to 1	< 50	< 50			CNc1cc(Nc2cccn([C@@H]3CCCOC3)c2=O)nc2c(C(=O)N[C@H]3CC[C@H](O)C3)cnn12 (stereo in doubt) [I-702, N-(3-hydroxycyclopentyl)-7-(methylamino)-5-((2-oxo-1-((S)-tetrahydro-2H-pyran-3-yl)-1,2-dihydropyridin-3-yl)amino)pyrazolo[1,5-a]pyrimidine-3-carboxamide]		
0.2 to 1			< 50	< 50	CNc1cc(Nc2cccn(-c3ccccn3)c2=O)nc2c(C(=O)N[C@@H]3CC[C@H]3O)cnn12 [I-972]		
0.2 to 1	< 50	< 50			CNc1cc(Nc2cccnc2OC2CC2)nc2c(C(=O)N[C@H]3CCC[C@@H]3O)cnn12 [I-466, 5-((2-cyclopropoxypyridin-3-yl)amino)-N-((1S,2S)-2-hydroxycyclopentyl)-7-(methylamino)pyrazolo[1,5-a]pyrimidine-3-carboxamide]		
0.2 to 1	< 50	< 50			CNc1cc(Nc2cccc(C3CCCCO3)n2)nc2c(C(=O)NC3CC3)cnn12 (stereo in doubt) [I-464, (S)—N-cyclopropyl-7-(methylamino)-5-((6-(tetrahydro-2H-pyran-2-yl)pyridin-2-yl)amino) pyrazolo[1,5-a]pyrimidine-3-carboxamide]		
0.2 to 1					CNc1cc(-c2cn(C(C)C)c3ncccc23)nc2c(C(=O)N[C@@H]3CC[C@@H]3O)cnn12 [I-638]	A (percent inhibition at 10 μM lower than 50)	A (percent inhibition at 10 μM lower than 50)
< 0.2					CNc1cc(Nc2cccnc2OC)nc2c(C(=O)N[C@@H]3CCC[C@@H](O)C3)cnn12 [I-497]	A (percent inhibition at 10 μM lower than 50)	A (percent inhibition at 10 μM lower than 50)
< 0.2	< 50	< 50			[2H]C([2H])([2H])Oc1ncccc1Nc1cc(NC)n2ncc(C(=O)NC3[C@H]4COC[C@@H]34)c2n1 (stereo partly drawn) [I-447]		

Structure (SMILES)	Kd [1] [nM]	inhibition at 10 µM (Tyk2 kinase domain (DH1); compound at 10 μM, ATP 10 μM) [%]	inhibition at 10 µM (JAK2 kinase domain (JH1); compound at 10 μM, ATP 10 μM) [%]	inhibition at 10 µM (Tyk2 kinase domain (DH1); 10 μM compound, 10 μM ATP) [%]	inhibition at 10 µM (JAK2 kinase domain (JH1); 10 μM compound, 10 μM ATP) [%]	Tyk2 JH1% Inhibition @ 10 μM (Tyk2 kinase domain (DH1); compound at 10 μM, ATP 10 μM)	JAK2 JH1% Inhibition @ 10 μM (JAK2 kinase domain (JH1); compound at 10 μM, ATP 10 μM)
CNc1cc(Nc2cccn([C@H]3CC[C@@H]3OC)c2=O)nc2c(C(=O)NC3CC3)cnn12 [I-1019]	0.2 to 1			< 50	< 50		
